Data published in the supplement of paper PMC6045584.
± gives the standard deviation of the averaged measurements.

Assays:
[1] = compound: Cc1nc(Nc2n[nH]c3c2CN(C(=O)N[C@H](CN(C)C)c2ccccc2)C3(C)C)c2sccc2n1; assay: surviving fraction relative to DMSO-only wells; higher = less growth inhibition; details: exposure time: 5 days
Procedure, shortened: (§1)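 At 250–500 cells per well in 384-well plates, log-phase tumour cell lines were seeded and, 24 hours on, exposed continuously for five days to inhibitors at 0.5, 1, 5, 10, 50, 100, 500 and 1000 nM. Viability readout was CellTiter-Glo luminescence, reported as surviving fraction normalised to the median of DMSO-only wells.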

[2] = compound: O=C(NOCC1CC1)c1ccc(F)c(F)c1Nc1ccc(I)cc1Cl; assay: as above; details: exposure time: 5 days
Procedure, shortened: as §1

Test System	surviving fraction ([1]; 0.5 nM)	surviving fraction ([1]; 1 nM)	surviving fraction ([1]; 5 nM)	surviving fraction ([1]; 10 nM)	surviving fraction ([1]; 50 nM)	surviving fraction ([1]; 100 nM)	surviving fraction ([1]; 500 nM)	surviving fraction ([1]; 1000 nM)	surviving fraction ([2]; 0.5 nM)	surviving fraction ([2]; 1 nM)	surviving fraction ([2]; 5 nM)	surviving fraction ([2]; 10 nM)	surviving fraction ([2]; 50 nM)	surviving fraction ([2]; 100 nM)	surviving fraction ([2]; 500 nM)	surviving fraction ([2]; 1000 nM)
NY BONE	0.934 ± 0.041	0.725 ± 0.025	0.527 ± 0.016	0.467 ± 0.031	0.447 ± 0.014	0.402 ± 0.018	0.258 ± 0.011	0.0807 ± 0.0051	0.923 ± 0.029	0.9257 ± 0.0055	0.953 ± 0.02	0.975 ± 0.023	0.97 ± 0.026	0.993 ± 0.028	0.93 ± 0.024	0.921 ± 0.037
OS25HAL BONE	0.983 ± 0.016	0.954 ± 0.024	0.597 ± 0.036	0.367 ± 0.029	0.281 ± 0.007	0.258 ± 0.015	0.24 ± 0.032	0.218 ± 0.0047	0.951 ± 0.024	0.964 ± 0.02	0.931 ± 0.033	0.971 ± 0.025	0.955 ± 0.015	0.989 ± 0.012	0.943 ± 0.012	0.954 ± 0.024
OSHN BONE	1.06 ± 0.037	1.01 ± 0.019	0.4963 ± 0.004	0.361 ± 0.026	0.31 ± 0.017	0.347 ± 0.031	0.366 ± 0.015	0.279 ± 0.018	0.969 ± 0.026	0.983 ± 0.029	0.979 ± 0.019	0.988 ± 0.028	0.969 ± 0.03	0.989 ± 0.016	0.973 ± 0.018	1 ± 0.027
PCI30 HEADNECK	0.882 ± 0.021	0.823 ± 0.028	0.579 ± 0.015	0.599 ± 0.038	0.538 ± 0.022	0.514 ± 0.024	0.344 ± 0.014	0.0833 ± 0.019	0.831 ± 0.027	0.849 ± 0.074	1.02 ± 0.078	1.01 ± 0.029	0.903 ± 0.015	0.758 ± 0.026	0.433 ± 0.036	0.402 ± 0.023
RDES SOFT TISSUE	0.764 ± 0.075	0.577 ± 0.1	1.16 ± 0.32	1.02 ± 0.14	0.756 ± 0.037	0.763 ± 0.1	0.525 ± 0.044	0.503 ± 0.094	1.33 ± 0.025	1.27 ± 0.071	1.32 ± 0.15	1.33 ± 0.093	1.28 ± 0.1	1.29 ± 0.085	1.37 ± 0.16	1.24 ± 0.082
S68 BREAST	1.04 ± 0.21	0.77 ± 0.013	0.481 ± 0.066	0.321 ± 0.04	0.288 ± 0.081	0.318 ± 0.0098	0.25 ± 0.014	0.234 ± 0.017	0.917 ± 0.13	0.918 ± 0.21	0.901 ± 0.063	1.04 ± 0.27	0.801 ± 0.18	0.852 ± 0.13	0.669 ± 0.1	0.544 ± 0.096
SAOS2 BONE	0.797 ± 0.0017	0.645 ± 0.062	0.509 ± 0.016	0.4777 ± 0.004	0.42 ± 0.019	0.376 ± 0.025	0.12 ± 0.018	0.034 ± 0.0017	1.08 ± 0.042	1.06 ± 0.032	1.04 ± 0.073	1.02 ± 0.018	1.02 ± 0.039	0.986 ± 0.078	0.885 ± 0.031	0.908 ± 0.047
SCC36 HEADNECK	0.862 ± 0.084	0.681 ± 0.052	0.258 ± 0.011	0.188 ± 0.019	0.152 ± 0.011	0.164 ± 0.029	0.101 ± 0.0062	0.106 ± 0.0084	1.09 ± 0.037	1.15 ± 0.03	1.09 ± 0.035	1.18 ± 0.12	1.03 ± 0.042	0.956 ± 0.057	0.776 ± 0.082	0.78 ± 0.087
SCC47 HEADNECK	1.06 ± 0.018	1.08 ± 0.033	0.815 ± 0.029	0.664 ± 0.074	0.47 ± 0.018	0.432 ± 0.044	0.292 ± 0.03	0.135 ± 0.023	0.82 ± 0.063	0.844 ± 0.011	0.951 ± 0.013	0.973 ± 0.087	0.928 ± 0.089	0.907 ± 0.044	0.628 ± 0.058	0.658 ± 0.024
SCC90 HEADNECK	0.981 ± 0.092	0.893 ± 0.19	0.516 ± 0.016	0.523 ± 0.027	0.488 ± 0.04	0.467 ± 0.028	0.185 ± 0.016	0.177 ± 0.034	0.786 ± 0.13	0.773 ± 0.081	0.991 ± 0.098	0.847 ± 0.16	0.672 ± 0.045	0.495 ± 0.12	0.235 ± 0.036	0.193 ± 0.037
